Each structure is given as a SMILES string. Read-outs that look alike come from different tables or passages of the source. Some results are limits rather than exact numbers.

One series concerns high-order RRE-Rev. As to the kind of experiment: EMSA of full-length RRE-Rev ribonucleoprotein formation. The format is binding, HIV-1. The conditions noted are these: 78 nM RRE, 1.32 μM Rev, 300 mM KCl, 1 mM MgCl2, band of high-order complexes. The source says:
After the high-affinity interaction between RRE subdomain IIB and the Rev34–50 helix of the first Rev monomer is established, the RRE-Rev ribonucleoprotein is formed by the incorporation of additional Rev units binding to further sites in the RRE (Fig. 3B, right)[9],[10],[13]. Using an electrophoretic mobility shift assay (EMSA) involving full-length RRE and Rev, we also evaluated whether 1,4-terphenyl compounds were capable of interfering with the formation of the ribonucleoprotein. […] The effect was particularly prominent for high-order complexes (containing a greater number of Rev monomers), but the inhibition of low-order complexes by 1d was also detected at concentrations consistent with the IC50 value measured in the IIB-Rev34–50 displacement experiment. Compounds 1b and 3c exerted a weaker effect on the RRE-Rev complex, in agreement with the results obtained in the displacement experiments monitored by fluorescence anisotropy (Fig. 3B and Table 1).
(§1) The experiments monitoring RRE-Rev inhibition utilized 78 nM full-length RRE and 1.32 μM full-length Rev dissolved in 10 mM HEPES pH 7.5, 300 mM KCl, 1 mM MgCl2 and 0.5 mM EDTA binding buffer, and increasing concentrations of each compound up to 50 μM[21],[39]. The reactions were incubated at room temperature for 20 minutes and loaded onto 8% polyacrylamide gels with TB running buffer. Gels were run at 4 °C for 1–4 hours at 150 V, and the bands were stained with SYBR gold and quantified with Quantity One 4.1 analysis software. Experiments monitoring binding to the 58-base pair HIV-1 LTRc core segment utilized 20 nM LTRc duplex dissolved in the same binding buffer, and increasing concentrations of each compound. The reactions were similarly incubated and loaded onto 20% polyacrylamide gels with TB running buffer. The gels were run at 4 °C for 3.5 hours at 150 V, and the bands were stained and quantified as described above. The specificity of LTRc association was evaluated by duplicating the experiments in the presence of a 100-fold molar excess of DNAd duplex (28-fold base-pair molar excess). In all cases, we monitored the disappearance of the band corresponding to high-order RRE-Rev complexes or free LTRc, and 50% response RC50 values were determined with Prism by fitting the data to a sigmoidal inhibitory model: I−Imin=ImaxC/1+C/RC50 where I is the intensity of the band corresponding to LTRc or high-order RRE-Rev species at compound concentration C, Imax the best-fit value for maximum intensity, and Imin the minimum intensity obtained at the highest concentration of inhibitor. All EMSA experiments were repeated three times for each compound.

Series [1] can be described thus: Cellular viability (CellTiterGlo) in mock infected cells. The conditions noted are these: human, mock infected MT-2 cells. The format is cell-based. The procedure:
(§2) The methodology used to perform and analyse these experiments has been reported elsewhere[7],[21],[22]. Briefly, infectious supernatants were obtained from transfection of plasmid pNL4.3-Ren on 293 T cells, MT-2 cells were infected with these supernatants in the presence of the compounds, and anti-HIV activity quantification was performed 48 h post-infection by determining luciferase activity in cell lysates compared to a non-treated control (100%). Cellular viability was evaluated in mock infected cells similarly treated with the same concentrations of compounds using the CellTiterGlo (Promega) assay.
Background: Cellular ATP, detected with luciferase, serves as a proxy for viable cell number.

A further series relates to HIV-1. As to the kind of experiment: Cellular HIV-1 infection assay (NL4.3-Ren, MT-2 cells). The format is cell-based. The conditions noted are these: Human immunodeficiency virus 1, MT2, 48 h post-infection. How it is done: as §2
Series [2] deals with TARh hairpin containing the HIV-1 Tat-binding UCU bulge. Put plainly: Fluorescence intensity binding to control TARh hairpin. To be noted: for Kd(TARh)/Kd(IIBh): low ionic strength, 10 mM sodium phosphate pH 6.6, uses Kd1. The source says: To evaluate the specificity of subdomain IIB recognition, we measured binding to a control TARh hairpin containing the HIV-1 Tat-binding UCU bulge[23] (Fig. 1D). […] We further assessed specificity by duplicating the IIBh-23fl association experiments in the presence of a 10-fold molar excess of tRNA^Lys or a 26-base pair LTRd DNA duplex. The binding curves of the compounds were affected by the presence of competitive tRNA^Lys and to a lesser extent by LTRd (Figs. 4A, S4 and S5 and Tables 2 and S2).
These experiments measured association to IIBh-23fl or TARh-8fl RNA molecules labelled with fluorescein at extrahelical loop nucleotides U23 and U8, respectively (Fig. 1D), and were carried out under two different ionic conditions in a Victor X5 plate reader, using excitation and emission wavelengths of 485 and 520 nm, respectively. We also attempted to measure association to an alternative IIBh hairpin containing 2-aminopurine instead of adenine at unpaired loop IIB residue A19[21], but all terphenyls fluoresced at the excitation wavelength of this fluorophore. IIBh-23fl or TARh-8fl (at 100 nM concentration) was equilibrated for 5 minutes after each ligand addition in a buffer containing either 10 mM sodium phosphate pH 6.6 and 0.1 mM EDTA or 10 mM HEPES pH 7.5, 200 mM KCl and 2 mM MgCl2. In addition to the TARh specificity control, the RNA and DNA specificity of the IIBh interactions was assessed by duplicating the experiments in the presence of a 10-fold molar excess (1 μM) of either tRNA^Lys or DNA duplex LTRd. The equilibrium dissociation constants Kd were determined by fitting the fluorescence intensity curves with DYNAFIT[40]. We used one-site, two independent-sites and two interacting-sites binding models for all curves, and the best model was automatically selected by model discrimination analysis, except where indicated. The final graphs were plotted with Prism. All fluorescence intensity experiments were performed at least two times for each compound and condition.

The subject of a further series is HTLV-1 LTR promoter. Put plainly: Transfection of pLTR(HTLV)-luc in MT-2 cells. To be noted: Primate T-lymphotropic virus 1, MT2, 48 h, read-out: EC50 transfection HTLV LTR.
Series [3] concerns full length proviral HIV-1 (NL4.3-luc). As to the kind of experiment: Transfection of full-length proviral HIV-1 (NL4.3-luc) in MT-2 cells. The format is cell-based. The conditions noted are these: Human immunodeficiency virus 1, MT2, 48 h, read-out: EC50 transfection HIV-1.
Series [4] deals with LTRc, core region of the HIV-1 LTR promoter. As to the kind of experiment: EMSA of association to LTRc DNA. The format is binding. To be noted: 20 nM LTRc duplex; 10 mM HEPES pH 7.5, 300 mM KCl, 1 mM MgCl2, 0.5 mM EDTA. How it is done: as §1
Background: A gel shift assay detects complexes by their altered migration in electrophoresis.

Series [5] has as its target RRE subdomain IIB-Rev34–50. Put plainly: Fluorescence anisotropy displacement of the IIBh-Rev34–50 interaction. The conditions noted are these: read-out: IC50, RRE subdomain IIB-Rev34–50, 60 nM IIBh, 10 nM frevp, 100 mM KCl, 20 mM NaCl, 2 mM MgCl2. (In general: Fluorescence polarisation rises when a labelled molecule tumbles more slowly, as on binding a larger partner.)
Experimental: These experiments were conducted in a Victor X5 (PerkinElmer) plate reader as described before[7],[21], using 10 nM frevp and 60 nM IIBh. […] Each fluorescence anisotropy experiment was repeated at least two times.

Setting [6] is: 10 mM sodium phosphate pH 6.6, 0.1 mM EDTA, read-out: Kd (TARh), one-site or first-site Kd1.
Setting [7] is: higher ionic strength, 10 mM HEPES pH 7.5, 200 mM KCl, 2 mM MgCl2.
Setting [8] is: higher ionic strength, 10 mM HEPES pH 7.5, 200 mM KCl, 2 mM MgCl2, read-out: Kd (TARh), Table S2.

Experimental for HTLV-1 LTR promoter: To further assess the mechanism of antiviral action of the compounds, we checked whether they also interfered with the regulatory sequences of HTLV-1, a closely related retrovirus.
MT-2 cells were transfected with plasmids containing a luciferase reporter gene whose expression was under the control of the full length proviral HIV-1 (NL4.3-luc), the HIV-1 LTR promoter (pLTR-luc), or the HTLV-1 LTR promoter (pLTR(HTLV)-luc). After transfection, cells were treated with different compound concentrations, and activity quantification was performed 48 h later by determining luciferase activity in cell lysates as described[7],[21],[22].

A word on the IC50: it is the concentration at which inhibition is half-maximal. One may read the CC50 as the concentration giving 50% cytotoxicity. A word on the EC50: it is the concentration that produces a half-maximal response. As a reminder, the Kd is the constant that tells how readily two partners part at equilibrium. For the compound `COc1cc(CCN)c(-c2cc(C)c(-c3cc(CCN)c(OC)cc3CCN)cc2C)cc1CCN` [Compound 1a], the figures for the half-inhibitory concentration (IC50) (with high-order RRE-Rev; in series [5]) were 6.8 µM and 14 µM, respectively. Also, the 50% cytotoxic concentration (CC50) at 48 h in series [1] was > 100 µM. Further, the EC50 stood at 10.6 µM with HIV-1, 16.7 µM with HTLV-1 LTR promoter and 12.2 µM in series [3]. Further, the Kd in series [2] (setting [6]) stood at 12 µM; in series [2] (setting [8]) it was 13 µM. Further, in series [2] (setting [7]), the “Kd(TARh)/Kd(IIBh), Table S2” value amounted to 3.0. Also, the “Kd(TARh)/Kd(IIBh)” value in series [2] was determined as 12. Further, in series [4], the “association to LTRc (EMSA)” value was “associated to LTRc at low μM concentrations”.

As to `Cc1cc(-c2cc(CCN)ccc2CCN)c(C)cc1-c1cc(CCN)ccc1CCN` [Compound 1d], the IC50 in the series on high-order RRE-Rev was 3 µM; in series [5], 47 µM. The 50% cytotoxic concentration (CC50) at 48 h in series [1] was > 100 µM. The EC50 with HIV-1 came out at 57.9 µM; in the series on HTLV-1 LTR promoter it was 24.9 µM; in series [3] it was 6 µM. Further, the equilibrium dissociation constant (Kd) in series [2] (setting [6]) stood at 22 µM; in series [2] (10 mM sodium phosphate pH 6.6, 0.1 mM EDTA, two-site model, read-out: Kd (TARh), second-site Kd2 (in brackets)) it was 22 µM; in series [2] (setting [8]), 32 µM. Moreover, the “Kd(TARh)/Kd(IIBh), Table S2” value in series [2] (setting [7]) is 4.3. The “Kd(TARh)/Kd(IIBh)” value in series [2] stood at 25. Further, the “association to LTRc (EMSA)” value in series [4] was “associated to LTRc at low μM concentrations”.

For `Cc1cc(-c2cc(CCN)ccc2CCN)c(C)cc1-c1cccc(CCN)c1` [Compound 3c], the IC50 was > 50 µM in the series with high-order RRE-Rev and > 100 µM in series [5]. Besides, the CC50 at 48 h in series [1] is > 100 µM. The concentration giving a half-maximal response (EC50) with HIV-1 is 14.1 µM; with HTLV-1 LTR promoter, 16.4 µM; in series [3], 15.4 µM. In addition, the Kd in series [2] (setting [6]) is 78 µM; in series [2] (setting [8]), > 50 µM. In addition, the “Kd(TARh)/Kd(IIBh)” value in series [2] is on record as 12. Besides, in series [4], the “association to LTRc (EMSA)” value is reported as “associated only very weakly”.

For the origin of these results see article PMC7188855, “Nucleic acid recognition and antiviral activity of 1,4-substituted terphenyl compounds mimicking all faces of the HIV-1 Rev protein positively-charged α-helix” (Scientific Reports, 2020).
